Literature values in patent US20070197530A1, “Amido compounds and their use as pharmaceuticals” (priority 2006, published 2007).

How the values were obtained:
[1] = tested on: healthy volunteers; conditions: after seven days of carbenoxolone treatment
[2] = tested on: pancreatic islet cells of ob/ob mice
[3] = tested on: bone nodule formation
[4] = tested on: primary hippocampal cells

CC1(C)[C@@H](OC(=O)CCC(=O)O)CC[C@]2(C)[C@H]3C(=O)C=C4[C@@H]5C[C@@](C)(C(=O)O)CC[C@]5(C)CC[C@@]4(C)[C@]3(C)CC[C@@H]12 [carbenoxolone]
IOP reduced by [1]: 18% | glucose-stimulated insulin release [2]: improves glucose-stimulated insulin release | negative effects of glucocorticoids on bone nodule formation [3]: attenuate the negative effects of glucocorticoids on bone nodule formation | protection from glucocorticoid-mediated exacerbation of excitatory amino acid neurotoxicity [4]: protects the cells from glucocorticoid-mediated exacerbation of excitatory amino acid neurotoxicity
